Measurements reported in patent US20220026420A1, “MOLECULES AND METHODS FOR IMPROVED IMMUNODETECTION OF SMALL MOLECULES SUCH AS HISTAMINE” (PRESIDENT AND FELLOWS OF HARVARD COLLEGE, priority 2018, published 2022).
One block for each molecule: values may come before it.

Tests used:
anti-histamine antibody [1] = assay: Competitive histamine ELISA with PEG linkers on streptavidin plates, anti-IgG HRP detection; format: binding
Description: To identify an antibody that recognizes free histamine with improved (lower) binding affinities, we used the PEG-mono-histidine linker (Structure 1) as a target with antibodies that we previously screened with BSA-histamine, i.e., the antibodies listed in FIG. 3A. […] The monovalent histidine linker (25 μM) 86 was added for 1 hour, and then 5 μg ml^−1 anti-histamine antibody was incubated with different concentrations of soluble histamine for 1 hour at room temperature on a shaker 88. Finally, anti-IgG labelled HRP 810 was used to detect the bound antibodies.
The monovalent histidine linker (25 μM) 86 was added for 1 hour, and then 5 μg ml^−1 anti-histamine antibody was incubated with different concentrations of soluble histamine for 1 hour at room temperature on a shaker 88. Finally, anti-IgG labelled HRP 810 was used to detect the bound antibodies.
Histamine detection assay could be performed in two formats. The first format includes the immobilization of histamine conjugates to the solid support while the second format includes the immobilization of anti-histamine antibody on the solid support. For the immobilization of histamine conjugates the immobilization sample was prepared in 0.2 M carbonate-bicarbonate buffer (pH 9.4). Immobilisation samples herein refers to BSA-histamine, Streptavidin, and not limited to BSA-Histidine Samples. A high binding polystyrene 96 well ELISA plate was coated with 100 microliters of immobilization sample and the plates were incubated overnight at 4° C. Each well was then washed thrice with 0.01M phosphate-buffered saline with 0.05% Tween 20 (pH 7.4). To each well was then added 250 microliters 1% BSA solution prepared in 0.01M phosphate-buffered saline with 0.05% Tween 20 (pH 7.4) for 1 hour at ambient temperature. Each well was then washed three times with 0.01M phosphate-buffered saline with 0.05% Tween 20 (pH 7.4). For Streptavidin coated plates, to each well was then added 100 microliters of linkers prepared in 0.1% BSA in 0.01M phosphate-buffered saline with 0.05% Tween 20 (pH 7.4) as described in the other sections for 2 hours at ambient temperature on a shaker at 260 rpm. Each well was then washed three times with 0.01M phosphate-buffered saline with 0.05% Tween 20 (pH 7.4). The plate was then incubated with 50 microlitres of different concentration of free histamine and co-incubated with anti-histamine antibody for 1 hour at ambient temperature. […]. Anti-histamine antibody was prepared in 0.1% BSA in 0.01M phosphate-buffered saline with 0.05% Tween 20 (pH 7.4). After the incubation, each well was washed three times with 0.01M phosphate-buffered saline with 0.05% Tween 20 (pH 7.4). […]

[2] = tested on: anti-histamine antibody conjugated to HRP; assay: Refined 5 min histamine ELISA with anti-histamine antibody conjugated to HRP; format: binding; settings: for starting signal compared to PEG-mono histidine: 5 min assay; for Kd: Hill equation fit without the 0 nM histamine data point, read-out: dissociation constant (Kd)
Description: The assay was further refined to decrease the total assay time. This was achieved by conjugating the anti-histamine antibody to the detection enzyme HRP 192 as depicted by FIG. 19. The resultant assay could be completed within 5 min. For the present study, only PEG-mono histidine and PEG-dual histidine were used. FIG. 20A and FIG. 20B show the results obtained from the study.
The data points obtained were fitted using a Hill equation which further assisted to characterize the linkers under study.
Histamine detection assay could be performed in two formats. The first format includes the immobilization of histamine conjugates to the solid support while the second format includes the immobilization of anti-histamine antibody on the solid support. For the immobilization of histamine conjugates the immobilization sample was prepared in 0.2 M carbonate-bicarbonate buffer (pH 9.4). Immobilisation samples herein refers to BSA-histamine, Streptavidin, and not limited to BSA-Histidine Samples. A high binding polystyrene 96 well ELISA plate was coated with 100 microliters of immobilization sample and the plates were incubated overnight at 4° C. Each well was then washed thrice with 0.01M phosphate-buffered saline with 0.05% Tween 20 (pH 7.4). To each well was then added 250 microliters 1% BSA solution prepared in 0.01M phosphate-buffered saline with 0.05% Tween 20 (pH 7.4) for 1 hour at ambient temperature. Each well was then washed three times with 0.01M phosphate-buffered saline with 0.05% Tween 20 (pH 7.4). For Streptavidin coated plates, to each well was then added 100 microliters of linkers prepared in 0.1% BSA in 0.01M phosphate-buffered saline with 0.05% Tween 20 (pH 7.4) as described in the other sections for 2 hours at ambient temperature on a shaker at 260 rpm. Each well was then washed three times with 0.01M phosphate-buffered saline with 0.05% Tween 20 (pH 7.4). The plate was then incubated with 50 microlitres of different concentration of free histamine and co-incubated with anti-histamine antibody for 1 hour at ambient temperature. […]. Anti-histamine antibody was prepared in 0.1% BSA in 0.01M phosphate-buffered saline with 0.05% Tween 20 (pH 7.4). After the incubation, each well was washed three times with 0.01M phosphate-buffered saline with 0.05% Tween 20 (pH 7.4). The plates were then incubated with a secondary antibody labelled with HRP prepared in 0.1% BSA in 0.01M phosphate-buffered saline with 0.05% Tween 20 (pH 7.4) in for 1 hour at ambient temperature. After the incubation, each well was washed three times with 0.01M phosphate-buffered saline with 0.05% Tween 20 (pH 7.4). Each well was then incubated with TMB turbo (150 microlitres) for 30 minute (measurement at a wavelength of 650 nm) followed by addition of 150 microlitres of 0.16 M Sulphuric acid to stop the solution in some examples where measurements are taken at a wavelength of 450 nm. […] Independent incubation time is described in each section.

anti-histamine antibody [3] = assay: 5-minute electrochemical assay in spiked human plasma samples; format: binding
Excerpt: The Immuno-assay developed on the ELISA plates using PEG-dual Histidine was translated to an electrochemical platform to develop a biosensor for free histamine detection in human plasma samples.

anti-histamine antibody [4] = assay: Histamine ELISA in spiked human plasma samples, conventional plate versus BSA-glutaraldehyde surface chemistry; format: binding; settings: FIG. 28
Description: In order for the assay design to be used for clinical applications for the rapid quantification of allergy severity, using clinical samples (e.g. human plasma, serum) is one of the most critical aspects. An ELISA plate was prepared using conventional means as shown in FIG. 19 using PEG-dual-histidine. In an alternative approach, an ELISA plate was prepared using the BSA-glutaraldehyde surface chemistry as previously described in international Application No. PCT/US2018/044076, the content of which is herein incorporated by reference. In contrast to the previously described system, no nanoparticles were used. Therefore BSA can be denatured and combined with glutaraldehyde and used to coat ELISA wells. This is then activated using and (1-ethyl-3-(3-dimethylaminopropyl)carbodiimide hydrochloride)/[…] (EDC/NHS) to link to streptavidin which allows attachment of biotin-PEG-dual-histidine. It can be clearly seen full blocking of the ELISA plate when human plasma samples are used for histamine detection. […] As per to date, no method exists to detect histamine in less than 10 minutes.

[5] = tested on: anti-histamine antibody conjugated to HRP; assay: ELISA affinity of anti-histamine antibody-HRP to different linkers, without free histamine; format: binding; settings: 5 minutes, no free histamine, compared to PEG-mono-histidine linker, FIG. 26
Excerpt: FIG. 26 is a plot of a comparison of PEG-mono histamine with PEG-mono histidine using streptavidin coated ELISA plates. As illustrated, the data presents the affinity of anti-histamine antibody conjugated to HRP to different histamine conjugate linkers. As in the previous studies, streptavidin modified plates were used, here to study PEG-Mono-Histamine, PEG-mono-Histidine, PEG-phenyl-histidine and PEG-glutamate-histidine. The assay format was as per FIG. 19 without free histamine in the solution. The modified plates were then exposed to different concentrations of anti-histamine antibodies conjugated with HRP for 5 minutes.

anti-histamine antibody [6] = assay: Electrochemical biosensor for free histamine detection; format: binding; settings: gold electrode, FIG. 12B
Description: The Immuno-assay developed on the ELISA plates was translated to an electrochemical platform to provide a biosensor for free histamine detection. The lowest concentration tested with the sensor was 2.7 nM which generated a statistically significant difference from the background. […] FIG. 12B is a semi-log plot showing the calibration curves for the electrochemical sensor using the structure depicted by FIG. 12A. Detection occurs as free […] competes and displaces Biotin-PEG6-Histidine conjugate from the anti-histamine.

[7] = tested on: Monoclonal Anti-Dinitrophenyl antibody conjugated with HRP; assay: Competitive DNP ELISA with DNP linkers on streptavidin plates; format: binding, mouse; settings: FIG. 25
Description: Monoclonal Anti-Dinitrophenyl antibody produced in mouse (D8406) and 2,4-Dinitrophenol (D198501 was purchased from Sigma. The anti-DNP antibody was directly conjugated with HRP using a commercial kit e.g., LIGHTENING-LINK™ Antibody Labeling Kits available from Novus Biolgicals. Once again ELISA plate coated with streptavidin was used as described in FIG. 19. After blocking, the plates were incubated with the respective linker. Different concentrations of DNP with anti-DNP antibody was co-incubated for 45 minutes at room temperature in the dark. After incubation, the wells were washed 3 times with 200 μL PBST and incubated with 150 μL TMB for 10 minutes. Finally, 150 μL of stop solution was added and absorbance measurement was observed. FIG. 25 is a plot showing ELISA results with Mono-DNP linker (blue) versus PEG-Dual-DNP linker (red). As with the dual histadine linkers, a clear difference could be seen between single and dual DNP linker. There is nearly a 30% increase in the signal intensity from single to dual DNP molecule.

[8] = tested on: anti-histamine antibody labelled with HRP; assay: 5 min histamine ELISA with BSA-PEG-mono-Histidine conjugate coated plates; format: binding; settings: 5 min incubation, FIG. 23
Description: The thiol-PEG-mono Histidine linker was attached to BSA as follows. A 1 mL aliquot of maleimide conjugation buffer obtained from Thermo scientific was added to 10 mg of purified thiol-PEG-mono Histidine linker. Subsequently, the 1 mL solution containing the thiol-PEG-mono Histidine was added to 5 mg of commercially available BSA-maleimide substrate and allowed to react at room temperature for 4 h to provide the histidine-PEG-BSA conjugate. The histidine-PEG-BSA conjugate was purified using a 10K spin column. The histidine-PEG-BSA conjugate obtained was then used to modify the ELISA plate wells and assay was performed using a 5 min incubation time. […] The steps include coating the plates with BSA-PEG-Histidine conjugate 222, blocking with BSA 224, and incubation with HRP labeled anti-histamine antibody and free histamine 226. FIG. 23 presents the results obtained and compared to BSA-histamine (commercial, FIG. 5). […] The used and anti-histamine antibody labelled with HRP in a 5 min incubation time assay.

Molecule: NC(=O)C(CCCCNC(=O)C(CCCCNC(=O)C(N)Cc1c[nH]cn1)NC(=O)C(N)Cc1c[nH]cn1)NC(=O)CCOCCOCCOCCOCCNC(=O)CCCCC1SC[C@H]2NC(=O)N[C@@H]12 (stereo partly drawn) [PEG-dual Histidine, Biotin-PEG-Dual-Histidine]
starting signal compared to PEG-mono-histidine (anti-histamine antibody [1]; 5 min incubation of anti-histamine antibody, FIG. 18A): increased starting signal
antibody binding specificity and sensitivity compared to the single histidine conjugate (anti-histamine antibody [1]; FIG. 11): significant improvement
starting signal compared to PEG-mono histidine [2]: higher starting signal
dynamic range compared to PEG-mono histidine ([2]; FIG. 21): broader dynamic range
Kd ([2]; FIG. 21): 280 nM
Kd (anti-histamine antibody [3]; Hill equation fit without the 0 nM histamine data point, human plasma): 6.76 nM
histamine concentration generating a statistically significant current change (anti-histamine antibody [3]; spiked human plasma, FIG. 24): 3.75 nM
histamine detection in spiked human plasma (anti-histamine antibody [4]; BSA-glutaraldehyde surface chemistry, under 10-minute assay): clear detection of histamine
histamine detection in spiked human plasma (anti-histamine antibody [4]; ELISA plate prepared by conventional means): full blocking

Molecule: NC(=O)C(CCCCNC(=O)C(CCC(=O)O)CC(=O)C(N)Cc1cnc[nH]1)NC(=O)CCOCCOCCOCCOCCNC(=O)CCCCC1SC[C@H]2NC(=O)N[C@@H]12 (stereo partly drawn) [PEG-glutamate-histidine, Biotin-PEG-Glutamate-Histadine]
binding affinity of anti-histamine antibody [5]: nearly no binding

Molecule: NC(=O)C(CCCCNC(=O)C(CCCCNc1cc([N+](=O)[O-])ccc1[N+](=O)[O-])Nc1cc([N+](=O)[O-])ccc1[N+](=O)[O-])NC(=O)CCOCCOCCOCCOCCNC(=O)CCCCC1SC[C@H]2NC(=O)N[C@@H]12 (stereo partly drawn) [dual DNP, Biotin-PEG-Dual-DNP]
increase in the signal intensity from single to dual DNP molecule ([7]; 45 min co-incubation): ~30%
dynamic range compared to single DNP linker [7]: broader dynamic range

Molecule: PEG-mono Histidine modified BSA: thiol-PEG-mono Histidine linker (Structure 5) attached to commercially available BSA-maleimide
sensitivity towards free histamine compared to BSA-histamine (commercial) [8]: increased sensitivity

Now from value to molecule, other results behind:

Kd ([2]; FIG. 21): 449 nM
Molecule: NC(Cc1c[nH]cn1)C(=O)NCCOCCOCCOCCOCCOCCOCCNC(=O)CCCCC1SC[C@H]2NC(=O)N[C@@H]12 (stereo partly drawn) [PEG-mono Histidine, Biotin-PEG-Mono-Histidine]
signal enhancement and sensitivity versus immobilized BSA-histamine (anti-histamine antibody [1]; FIG. 10): significantly improved
lowest concentration tested generating a statistically significant difference from the background (anti-histamine antibody [6]): 2.7 nM

binding affinity of anti-histamine antibody [5]: decreased significantly
Molecule: NC(=O)C(CCCCNC(=O)C(Cc1ccccc1)NC(=O)C(N)Cc1cnc[nH]1)NC(=O)CCOCCOCCOCCOCCNC(=O)CCCCC1SC[C@@H]2NC(=O)N[C@H]12 (stereo partly drawn) [PEG-phenyl-histidine, Biotin-PEG-Phenyl-Histadine]
sensitivity of the assay compared to PEG-mono-histidine ([2]; 5-minute histamine assay, FIG. 27): no significant difference
starting signal compared to PEG-mono histidine [2]: lower starting signal

binding affinity of anti-histamine antibody [5]: high binding affinity
Molecule: biotin-EG6-histamine [PEG-mono-histamine]
detection of free histamine (anti-histamine antibody [1]; concentration range studied, streptavidin coated plates, FIG. 15): could not be detected
